Key:
CCRF-CEM = assay: Antiproliferative activity against human CEM cells assessed as reduction in cell viability; format: functional, cell-based
Neprilysin = Neprilysin (Homo sapiens, UniProt P08473); assay: Partial agonist activity at human neprilysin expressed in CHP-212 cells; format: cell-based
T47D = assay: Antiproliferative activity against human T47D cells assessed as reduction in cell viability measured for 48 hr by MTT assay; format: functional, cell-based
A549 = assay: Antiproliferative activity against human A549 cells assessed as reduction in cell viability measured for 48 hr by MTT assay; format: functional, cell-based; conditions: A549, 48 h
HCT-15 = assay: Antiproliferative activity against human HCT-15 cells assessed as reduction in cell viability measured for 48 hr by MTT assay; format: functional, cell-based; conditions: HCT-15, 48 h
Influenza A virus [1] = assay: Antiviral activity against Influenza A virus A/WSN/33(H1N1) strain; format: functional, organism-based
Influenza A virus [2] = assay: Antiviral activity against Influenza A virus H3N2 subtype; format: functional, organism-based
Influenza A virus [3] = assay: Antiviral activity against influenza A virus; format: functional, organism-based
Staphylococcus aureus = assay: Antibacterial activity against Staphylococcus aureus ATCC 6538 assessed as inhibition zone; format: functional
Escherichia coli = assay: Antibacterial activity against Escherichia coli ATCC 11229 assessed as inhibition zone; format: functional
Candida albicans = assay: Antifungal activity against Candida albicans ATCC 10231 assessed as inhibition zone; format: functional
HeLa [4] = assay: Antiproliferative activity against human HeLa cells assessed as reduction in cell viability at 10 to 50 uM relative to control; format: functional; conditions: dose 10-50 µM
PANC-1 [5] = assay: Antiproliferative activity against human PANC-1 cells assessed as reduction in cell viability at 25 to 50 uM relative to control; format: functional; conditions: dose 25-50 µM
HeLa [6] = assay: Induction of cell cycle arrest in human HeLa cells assessed as accumulation of cells in subG1 phase; format: functional
PANC-1 [7] = assay: Induction of cell cycle arrest in human PANC-1 cells assessed as accumulation of cells in G0/G1 phase; format: functional
PC-3 = assay: Antiproliferative activity against human PC-3 cells assessed as reduction in cell viability measured for 48 hr by MTT assay; format: functional, cell-based; conditions: PC-3, 48 h

Neprilysin, sequence (P08473 whole entry): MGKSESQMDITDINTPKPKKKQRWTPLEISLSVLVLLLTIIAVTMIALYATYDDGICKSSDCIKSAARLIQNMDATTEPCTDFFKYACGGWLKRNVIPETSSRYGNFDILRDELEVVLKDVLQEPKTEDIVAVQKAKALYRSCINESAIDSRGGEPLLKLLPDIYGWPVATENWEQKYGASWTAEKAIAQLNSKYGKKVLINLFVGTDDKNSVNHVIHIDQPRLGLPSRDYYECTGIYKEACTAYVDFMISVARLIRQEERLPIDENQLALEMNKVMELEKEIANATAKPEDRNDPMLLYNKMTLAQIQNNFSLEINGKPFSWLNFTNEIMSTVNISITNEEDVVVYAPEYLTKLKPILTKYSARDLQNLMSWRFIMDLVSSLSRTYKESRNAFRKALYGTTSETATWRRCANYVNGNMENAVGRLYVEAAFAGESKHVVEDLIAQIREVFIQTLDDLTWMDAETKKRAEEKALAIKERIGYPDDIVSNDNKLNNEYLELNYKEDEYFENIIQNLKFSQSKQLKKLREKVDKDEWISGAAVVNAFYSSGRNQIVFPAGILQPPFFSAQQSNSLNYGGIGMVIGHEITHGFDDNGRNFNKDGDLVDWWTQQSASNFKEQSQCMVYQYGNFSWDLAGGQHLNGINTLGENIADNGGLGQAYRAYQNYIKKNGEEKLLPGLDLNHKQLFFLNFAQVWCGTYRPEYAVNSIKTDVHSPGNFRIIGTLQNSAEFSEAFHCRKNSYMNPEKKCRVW

With `COC(=O)c1cc(CSCc2ccc(C(C)C)cc2)sc1N` the IC50 (CCRF-CEM) was 0.46 µM.

Compound `CCc1ccc(CSCc2cc(C(=O)OC)c(N)s2)cc1` has an IC50 (CCRF-CEM) of 0.34 µM.

`CCCN(CC(F)(F)F)c1cc(Br)c(C#N)s1` showed an EC50 (Neprilysin) of 0.005 µM.

In the case of `CCOC(=O)c1c(N)sc(/N=C/c2ccc([N+](=O)[O-])o2)c1C(=O)OCC`, the IC50 (T47D) is reported as 21.4 µM, the IC50 (A549) is reported as 22.8 µM and the IC50 (HCT-15) is reported as 10.2 µM. It also gave an IC50 (Influenza A virus [1]) of 0.94 µM, an IC50 (Influenza A virus [2]) of 2.4 µM and an IC50 (Influenza A virus [3]) of 0.79 µM. The “inhibition zone (IZ)” value (Staphylococcus aureus) was 22 mm, the “inhibition zone (IZ)” value (Escherichia coli) was 16 mm and the “inhibition zone (IZ)” value (Candida albicans) was greater than 22 mm.

With `COc1ccc(Br)cc1/C=N/c1sc2c(c1C#N)CCCCC2` the Activity (HeLa [4]) was 35%, the Activity (PANC-1 [5]) was 50% and the Activity (HeLa [6]) was 6.2%. The Activity (PANC-1 [7]) was 28.2%.

`N#Cc1c(/N=C/c2ccc(F)cc2)sc2c1CCCC2` gave an Activity (HeLa [4]) of 50%, an Activity (PANC-1 [5]) of 68% and an Activity (HeLa [6]) of 12.05%. The Activity (PANC-1 [7]) was 9.3%.

`CCOC(=O)c1c(N)sc(/N=C/c2ccc([N+](=O)[O-])s2)c1C(=O)OCC` gave an IC50 (A549) of 1.3 µM, an IC50 (PC-3) of 10.9 µM and an IC50 (HCT-15) of 6.1 µM. The IC50 (Influenza A virus [1]) was 3.56 µM, the IC50 (Influenza A virus [2]) was 3.72 µM and the IC50 (Influenza A virus [3]) was 10.5 µM.

— ChEMBL document CHEMBL5260821, “2-Aminothiophene scaffolds: Diverse biological and pharmacological attributes in medicinal chemistry” (Eur J Med Chem, 2017)
